{"source": "patent US20230085307A1", "about": "“PYRIDAZINONE COMPOUND AND HERBICIDE” (NISSAN CHEMICAL CORPORATION, priority 2019, published 2023)", "key": {"late watergrass": {"system": "late watergrass", "test": "Test Example 1: herbicidal activity, application before weed generation under submerged conditions (Table 16, symbol A)", "assay_type": "in vivo, late watergrass (Echinochloa oryzicola)", "conditions": "amount of applied herbicide 320 g/ha", "outline": "(§1)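 Submerged Wagner pots (alluvial soil, 4 cm water) sown with weed seeds and planted with 2.5-leaf rice seedlings; emulsifiable concentrate diluted in water applied to water surface on sowing day. Held in greenhouse at 25-30 °C; injury scored 0-5 by herbicidal rate after three weeks.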"}, "Japanese bulrush": {"system": "Japanese bulrush", "test": "Test Example 1: herbicidal activity, application before weed generation under submerged conditions (Table 16, symbol B)", "assay_type": "in vivo, Japanese bulrush (Schoenoplectus juncoides)", "conditions": "amount of applied herbicide 320 g/ha", "outline": "as §1"}, "oval-leafed pondweed": {"system": "oval-leafed pondweed", "test": "Test Example 1: herbicidal activity, application before weed generation under submerged conditions (Table 16, symbol C)", "assay_type": "in vivo, oval-leafed pondweed (Monochoria vaginalis)", "conditions": "amount of applied herbicide 320 g/ha", "outline": "as §1"}, "barnyard grass [1]": {"system": "barnyard grass", "test": "Test Example 3: herbicidal effect by foliage application, Wagner pot (Table 18, symbol H)", "assay_type": "in vivo, barnyard grass (Echinochloa crus-galli)", "conditions": "320 g/ha", "outline": "(§2)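 Plants were sown in alluvial soil held under 0.1–0.5 cm standing water and grown 14 days in a greenhouse at 25–30 °C. An emulsifiable formulation, water-diluted to the set dose, was then sprayed onto the foliage, and effects were scored three weeks later using previously defined criteria.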"}, "Chinese sprangletop": {"system": "Chinese sprangletop", "test": "Test Example 3: herbicidal effect by foliage application, Wagner pot (Table 18, symbol D)", "assay_type": "in vivo, chinese sprangletop (Leptochloa chinensis)", "conditions": "320 g/ha", "outline": "as §2"}, "rice flat sedge": {"system": "rice flat sedge", "test": "Test Example 3: herbicidal effect by foliage application, Wagner pot (Table 18, symbol E)", "assay_type": "in vivo, rice flat sedge (Cyperus iria)", "conditions": "320 g/ha", "outline": "as §2"}, "southern crabgrass [2]": {"system": "southern crabgrass", "test": "Test Example 4: herbicidal effect by soil treatment (Table 19, symbol F)", "assay_type": "in vivo, southern crabgrass (Digitaria ciliaris)", "conditions": "amount of applied herbicide 320 g/ha", "outline": "(§3)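 Applied as a water-diluted emulsion, the compound was sprayed onto soil covering newly sown seeds. Evaluation came three weeks after application, in a greenhouse held at 25° C. to 30° C.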"}, "green foxtail [3]": {"system": "green foxtail", "test": "Test Example 4: herbicidal effect by soil treatment (Table 19, symbol G)", "assay_type": "in vivo, green foxtail (Setaria viridis)", "conditions": "amount of applied herbicide 320 g/ha", "outline": "as §3"}, "barnyard grass [4]": {"system": "barnyard grass", "test": "Test Example 4: herbicidal effect by soil treatment (Table 19, symbol H)", "assay_type": "in vivo, barnyard grass (Echinochloa crus-galli)", "conditions": "amount of applied herbicide 320 g/ha", "outline": "as §3"}, "wild oat [5]": {"system": "wild oat", "test": "Test Example 4: herbicidal effect by soil treatment (Table 19, symbol I)", "assay_type": "in vivo, wild oat (Avena fatua)", "conditions": "amount of applied herbicide 320 g/ha", "outline": "as §3"}, "blackgrass [6]": {"system": "blackgrass", "test": "Test Example 4: herbicidal effect by soil treatment (Table 19, symbol J)", "assay_type": "in vivo, blackgrass (Alopecurus myosuroides)", "conditions": "amount of applied herbicide 320 g/ha", "outline": "as §3"}, "Italian ryegrass [7]": {"system": "Italian ryegrass", "test": "Test Example 4: herbicidal effect by soil treatment (Table 19, symbol K)", "assay_type": "in vivo, Italian ryegrass (Lolium multiflorum)", "conditions": "amount of applied herbicide 320 g/ha", "outline": "as §3"}, "windgrass [8]": {"system": "windgrass", "test": "Test Example 4: herbicidal effect by soil treatment (Table 19, symbol L)", "assay_type": "in vivo, windgrass (Apera spica-venti)", "conditions": "amount of applied herbicide 320 g/ha", "outline": "as §3"}, "velvetleaf [9]": {"system": "velvetleaf", "test": "Test Example 4: herbicidal effect by soil treatment (Table 19, symbol M)", "assay_type": "in vivo, velvetleaf (Abutilon theophrasti)", "conditions": "amount of applied herbicide 320 g/ha", "outline": "as §3"}, "redroot pigweed [10]": {"system": "redroot pigweed", "test": "Test Example 4: herbicidal effect by soil treatment (Table 19, symbol N)", "assay_type": "in vivo, redroot pigweed (Amaranthus retroflexus)", "conditions": "amount of applied herbicide 320 g/ha", "outline": "as §3"}, "lambsquarters [11]": {"system": "lambsquarters", "test": "Test Example 4: herbicidal effect by soil treatment (Table 19, symbol O)", "assay_type": "in vivo, lambsquarters (Chenopodium album)", "conditions": "amount of applied herbicide 320 g/ha", "outline": "as §3"}, "chickweed [12]": {"system": "chickweed", "test": "Test Example 4: herbicidal effect by soil treatment (Table 19, symbol P)", "assay_type": "in vivo, common chickweed (Stellaria media)", "conditions": "amount of applied herbicide 320 g/ha", "outline": "as §3"}, "persian speedwell [13]": {"system": "persian speedwell", "test": "Test Example 4: herbicidal effect by soil treatment (Table 19, symbol R)", "assay_type": "in vivo, Persian speedwell (Veronica persica)", "conditions": "amount of applied herbicide 320 g/ha", "outline": "as §3"}, "southern crabgrass [14]": {"system": "southern crabgrass", "test": "Test Example 5: herbicidal effect by foliage application, plastic box (Table 20, symbol F)", "assay_type": "in vivo, southern crabgrass (Digitaria ciliaris)", "conditions": "amount of applied herbicide 320 g/ha; foliage application after 14-day growth; evaluated three weeks after application", "outline": "(§4)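 Sow seeds spot-wise in sterilized diluvial soil; cover with ~1.5 cm soil. Grow 14 days in greenhouse, 25° C. to 30° C. Spray foliage with emulsion diluted to predetermined amount. Rate effect after 3 weeks.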"}, "green foxtail [15]": {"system": "green foxtail", "test": "Test Example 5: herbicidal effect by foliage application, plastic box (Table 20, symbol G)", "assay_type": "in vivo, green foxtail (Setaria viridis)", "conditions": "amount of applied herbicide 320 g/ha; foliage application after 14-day growth; evaluated three weeks after application", "outline": "as §4"}, "barnyard grass [16]": {"system": "barnyard grass", "test": "Test Example 5: herbicidal effect by foliage application, plastic box (Table 20, symbol H)", "assay_type": "in vivo, barnyard grass (Echinochloa crus-galli)", "conditions": "amount of applied herbicide 320 g/ha; foliage application after 14-day growth; evaluated three weeks after application", "outline": "as §4"}, "wild oat [17]": {"system": "wild oat", "test": "Test Example 5: herbicidal effect by foliage application, plastic box (Table 20, symbol I)", "assay_type": "in vivo, wild oat (Avena fatua)", "conditions": "amount of applied herbicide 320 g/ha; foliage application after 14-day growth; evaluated three weeks after application", "outline": "as §4"}, "blackgrass [18]": {"system": "blackgrass", "test": "Test Example 5: herbicidal effect by foliage application, plastic box (Table 20, symbol J)", "assay_type": "in vivo, blackgrass (Alopecurus myosuroides)", "conditions": "amount of applied herbicide 320 g/ha; foliage application after 14-day growth; evaluated three weeks after application", "outline": "as §4"}, "Italian ryegrass [19]": {"system": "Italian ryegrass", "test": "Test Example 5: herbicidal effect by foliage application, plastic box (Table 20, symbol K)", "assay_type": "in vivo, Italian ryegrass (Lolium multiflorum)", "conditions": "amount of applied herbicide 320 g/ha; foliage application after 14-day growth; evaluated three weeks after application", "outline": "as §4"}, "windgrass [20]": {"system": "windgrass", "test": "Test Example 5: herbicidal effect by foliage application, plastic box (Table 20, symbol L)", "assay_type": "in vivo, windgrass (Apera spica-venti)", "conditions": "amount of applied herbicide 320 g/ha; foliage application after 14-day growth; evaluated three weeks after application", "outline": "as §4"}, "velvetleaf [21]": {"system": "velvetleaf", "test": "Test Example 5: herbicidal effect by foliage application, plastic box (Table 20, symbol M)", "assay_type": "in vivo, velvetleaf (Abutilon theophrasti)", "conditions": "amount of applied herbicide 320 g/ha; foliage application after 14-day growth; evaluated three weeks after application", "outline": "as §4"}, "redroot pigweed [22]": {"system": "redroot pigweed", "test": "Test Example 5: herbicidal effect by foliage application, plastic box (Table 20, symbol N)", "assay_type": "in vivo, redroot pigweed (Amaranthus retroflexus)", "conditions": "amount of applied herbicide 320 g/ha; foliage application after 14-day growth; evaluated three weeks after application", "outline": "as §4"}, "lambsquarters [23]": {"system": "lambsquarters", "test": "Test Example 5: herbicidal effect by foliage application, plastic box (Table 20, symbol O)", "assay_type": "in vivo, lambsquarters (Chenopodium album)", "conditions": "amount of applied herbicide 320 g/ha; foliage application after 14-day growth; evaluated three weeks after application", "outline": "as §4"}, "chickweed [24]": {"system": "chickweed", "test": "Test Example 5: herbicidal effect by foliage application, plastic box (Table 20, symbol P)", "assay_type": "in vivo, common chickweed (Stellaria media)", "conditions": "amount of applied herbicide 320 g/ha; foliage application after 14-day growth; evaluated three weeks after application", "outline": "as §4"}, "persian speedwell [25]": {"system": "persian speedwell", "test": "Test Example 5: herbicidal effect by foliage application, plastic box (Table 20, symbol R)", "assay_type": "in vivo, Persian speedwell (Veronica persica)", "conditions": "amount of applied herbicide 320 g/ha; foliage application after 14-day growth; evaluated three weeks after application", "outline": "as §4"}}, "data": [{"smiles": "CCOc1cccc(-c2sc3c(C)cccc3c2-c2c(O)c(C)nn(C)c2=O)c1", "note": "[4-114]", "values": [{"measurement": "Herbicidal effect, A: late watergrass", "setting": "late watergrass", "value": "3 (Herbicidal rate of 40% or more and less than 70%)"}, {"measurement": "Herbicidal effect, B: Japanese bulrush", "setting": "Japanese bulrush", "value": "0 (Herbicidal rate of 5% or less (almost no effect))"}, {"measurement": "Herbicidal effect, C: oval-leafed pondweed", "setting": "oval-leafed pondweed", "value": "0 (Herbicidal rate of 5% or less (almost no effect))"}, {"measurement": "herbicidal effect on barnyard grass (H)", "setting": "barnyard grass [1]", "value": "4 (Herbicidal rate of 70% or more and less than 90%)"}, {"measurement": "herbicidal effect on Chinese sprangletop (D)", "setting": "Chinese sprangletop", "value": "3 (Herbicidal rate of 40% or more and less than 70%)"}, {"measurement": "herbicidal effect on rice flat sedge (E)", "setting": "rice flat sedge", "value": "4 (Herbicidal rate of 70% or more and less than 90%)"}, {"measurement": "Herbicidal effect by soil treatment, F: southern crabgrass", "setting": "southern crabgrass [2]", "value": "4 (Herbicidal rate of 70% or more and less than 90%)"}, {"measurement": "Herbicidal effect by soil treatment, G: green foxtail", "setting": "green foxtail [3]", "value": "4 (Herbicidal rate of 70% or more and less than 90%)"}, {"measurement": "Herbicidal effect by soil treatment, H: barnyard grass", "setting": "barnyard grass [4]", "value": "1 (Herbicidal rate of 5% or more and less than 20%)"}, {"measurement": "Herbicidal effect by soil treatment, I: wild oat", "setting": "wild oat [5]", "value": "0 (Herbicidal rate of 5% or less (almost no effect))"}, {"measurement": "Herbicidal effect by soil treatment, J: blackgrass", "setting": "blackgrass [6]", "value": "0 (Herbicidal rate of 5% or less (almost no effect))"}, {"measurement": "Herbicidal effect by soil treatment, K: Italian ryegrass", "setting": "Italian ryegrass [7]", "value": "4 (Herbicidal rate of 70% or more and less than 90%)"}, {"measurement": "Herbicidal effect by soil treatment, L: windgrass", "setting": "windgrass [8]", "value": "0 (Herbicidal rate of 5% or less (almost no effect))"}, {"measurement": "Herbicidal effect by soil treatment, M: velvetleaf", "setting": "velvetleaf [9]", "value": "0 (Herbicidal rate of 5% or less (almost no effect))"}, {"measurement": "Herbicidal effect by soil treatment, N: redroot pigweed", "setting": "redroot pigweed [10]", "value": "3 (Herbicidal rate of 40% or more and less than 70%)"}, {"measurement": "Herbicidal effect by soil treatment, O: lambsquarters", "setting": "lambsquarters [11]", "value": "4 (Herbicidal rate of 70% or more and less than 90%)"}, {"measurement": "Herbicidal effect by soil treatment, P: chickweed", "setting": "chickweed [12]", "value": "3 (Herbicidal rate of 40% or more and less than 70%)"}, {"measurement": "Herbicidal effect by soil treatment, R: persian speedwell", "setting": "persian speedwell [13]", "value": "4 (Herbicidal rate of 70% or more and less than 90%)"}, {"measurement": "Herbicidal effect by foliage application, F: southern crabgrass", "setting": "southern crabgrass [14]", "value": "4 (Herbicidal rate of 70% or more and less than 90%)"}, {"measurement": "Herbicidal effect by foliage application, G: green foxtail", "setting": "green foxtail [15]", "value": "4 (Herbicidal rate of 70% or more and less than 90%)"}, {"measurement": "Herbicidal effect by foliage application, H: barnyard grass", "setting": "barnyard grass [16]", "value": "0 (Herbicidal rate of 5% or less (almost no effect))"}, {"measurement": "Herbicidal effect by foliage application, I: wild oat", "setting": "wild oat [17]", "value": "0 (Herbicidal rate of 5% or less (almost no effect))"}, {"measurement": "Herbicidal effect by foliage application, J: blackgrass", "setting": "blackgrass [18]", "value": "1 (Herbicidal rate of 5% or more and less than 20%)"}, {"measurement": "Herbicidal effect by foliage application, K: Italian ryegrass", "setting": "Italian ryegrass [19]", "value": "5 (Herbicidal rate of 90% or more (almost completely withered))"}, {"measurement": "Herbicidal effect by foliage application, L: windgrass", "setting": "windgrass [20]", "value": "1 (Herbicidal rate of 5% or more and less than 20%)"}, {"measurement": "Herbicidal effect by foliage application, M: velvetleaf", "setting": "velvetleaf [21]", "value": "1 (Herbicidal rate of 5% or more and less than 20%)"}, {"measurement": "Herbicidal effect by foliage application, N: redroot pigweed", "setting": "redroot pigweed [22]", "value": "4 (Herbicidal rate of 70% or more and less than 90%)"}, {"measurement": "Herbicidal effect by foliage application, O: lambsquarters", "setting": "lambsquarters [23]", "value": "3 (Herbicidal rate of 40% or more and less than 70%)"}, {"measurement": "Herbicidal effect by foliage application, P: chickweed", "setting": "chickweed [24]", "value": "5 (Herbicidal rate of 90% or more (almost completely withered))"}, {"measurement": "Herbicidal effect by foliage application, R: persian speedwell", "setting": "persian speedwell [25]", "value": "5 (Herbicidal rate of 90% or more (almost completely withered))"}]}]}
